pIC50: −log10 of the molar value.
What was measured:
[1] = biological target: T1, RNR (RNR1:RNR2 1:1) (Homo sapiens, UniProt P23921+P31350); assay: RNR enzyme activity, rapid-fire mass spectrometry (RF/MS) assay; format: biochemical; details: RNR 50 nM, 1:1 (RNR1:RNR2); CDP 5 μM; ATP 1 mM; 37° C., 45 min; compounds screened up to 50 μM
T1 sequence (P23921 1-792): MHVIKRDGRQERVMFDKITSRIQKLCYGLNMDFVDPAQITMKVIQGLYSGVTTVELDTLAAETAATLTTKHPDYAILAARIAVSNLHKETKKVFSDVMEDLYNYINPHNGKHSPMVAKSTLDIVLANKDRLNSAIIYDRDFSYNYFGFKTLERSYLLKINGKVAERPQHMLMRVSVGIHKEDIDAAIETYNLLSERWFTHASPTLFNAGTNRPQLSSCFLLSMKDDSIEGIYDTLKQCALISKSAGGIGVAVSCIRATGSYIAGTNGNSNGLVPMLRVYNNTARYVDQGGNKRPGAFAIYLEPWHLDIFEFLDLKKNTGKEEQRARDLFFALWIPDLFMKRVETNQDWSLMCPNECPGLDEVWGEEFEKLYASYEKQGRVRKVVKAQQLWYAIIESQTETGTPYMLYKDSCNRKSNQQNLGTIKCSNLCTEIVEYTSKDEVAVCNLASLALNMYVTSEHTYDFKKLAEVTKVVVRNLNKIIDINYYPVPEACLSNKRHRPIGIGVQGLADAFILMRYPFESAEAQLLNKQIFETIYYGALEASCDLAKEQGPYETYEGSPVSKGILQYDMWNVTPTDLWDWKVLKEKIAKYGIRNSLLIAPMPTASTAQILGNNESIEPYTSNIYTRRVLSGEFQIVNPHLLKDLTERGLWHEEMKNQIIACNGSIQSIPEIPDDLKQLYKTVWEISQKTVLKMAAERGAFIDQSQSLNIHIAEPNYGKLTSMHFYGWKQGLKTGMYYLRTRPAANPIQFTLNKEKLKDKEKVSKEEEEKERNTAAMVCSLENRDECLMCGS
T1 sequence (P31350 1-389): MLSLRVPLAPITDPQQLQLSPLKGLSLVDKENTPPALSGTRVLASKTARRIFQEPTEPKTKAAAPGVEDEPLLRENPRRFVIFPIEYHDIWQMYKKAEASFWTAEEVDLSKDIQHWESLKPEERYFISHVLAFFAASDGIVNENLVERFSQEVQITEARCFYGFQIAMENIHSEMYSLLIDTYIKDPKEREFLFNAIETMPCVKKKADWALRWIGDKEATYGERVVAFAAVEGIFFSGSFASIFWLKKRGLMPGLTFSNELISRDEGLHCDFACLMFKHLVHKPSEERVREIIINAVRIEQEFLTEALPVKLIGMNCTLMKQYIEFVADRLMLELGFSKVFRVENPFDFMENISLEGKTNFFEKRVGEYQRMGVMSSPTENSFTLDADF
Description: A rapid-fire mass spectrometry (RF/MS) assay was used to assess RNR enzyme activity using a 384 well plate and a robotic platform.
The plate layout included two validated reference compounds (Triapine (3-AP) and Hydroxyurea (HU)): • A dose response in duplicate, top concentration: 5 μM (3-AP) and 250 μM (HU), semi-log • dilutions. • Spike wells in triplicate randomly spotted at four concentrations: • 250 μM, 100 μM, 30 μM and 2 μM for HU • 5 μM, 2 μM, 0.6 μM and 0.04 μM for 3-AP
First, the multidrop pipes were saturated for 30 minutes with enzymatic solution. Then 30 μL of Stop solution was distributed in column 24. Next, 15 μL of enzyme was distributed in column 1 to 24. Next, a pre-incubation step of 15 minutes at room temperature occurred, followed by distribution of 15 μL of substrate solution (column 1 to 24). Next, the plate was incubated for 45 minutes at 37° C. 30 μL of Stop solution was distributed to columns 1 to 23.
The final parameters for the enzyme reactions were: • Incubation: 37° C., 45 min • [CDP]: 5 μM: [ATP]: 1 mM; [NADPH]: No • [RNR]final: 50 nM with 1:1 (RNR1:RNR2) ratio • Final volume: 30 μL • Stop solution: 6% HCOOH containing 2 μM of 15

[2] = test system: pCHK1 (S345) in Colo320 DM cells; assay: Alphalisa assay, detection of pCHK1 (S345) in Colo320 DM cells; format: cell-based; details: Homo sapiens, COLO 320DM, compound incubation overnight (approximately 16 hours)
Description: Colo320 DM cells (ATCC #CCL-220, derived from human colorectal adenocarcinoma, Dukes' type C) were seeded on a 96-well, cell culture treated assay plate at a density of 50,000 cells/well in 200 μL of RPMI-1640 media supplemented with 10% Fetal Bovine Serum and incubated at 37° C. overnight. The following day, test compound dilutions were added directly to the plated cells by a Tecan digital dispenser to a final DMSO concentration of <0.5%, and incubated at 37° C. overnight (approximately 16 hours). The following day all cull culture media was removed from the cells. 75 μL of 1× AlphaLisa lysis buffer was added to each well and plates were agitated on a shaker for 30 minutes at room temperature. The lysis of cells and detection of pCHK1 (S345) were performed with regents contained within the AlphaLisa Sure Fire assay kit (Perkin Elmer #ALSU-PCHK1-A) according to the manufacturer's instructions. 10 μL of each lysate was then transferred to a white, 384-well assay plate (Perkin Elmer #6008280), 5 μL of Acceptor mix was then added to each well of lysate in the white, 384-well assay plate and incubated in the dark at room temperature for 60 minutes. 5 μL of Donor mix was then added to each well of the white, 384-well assay plate in subdued light and incubated at room temperature for 60 minutes. Plates were read on an Alpha Technology-compatible plate reader using standard AlphaLisa settings.

Row | Compound | pIC50 [1] | pIC50 [2]
1 | O=S(=O)(c1ccc2cc[nH]c2c1)N1C[C@H]2CC[C@@H](C1)N2c1ccc(O)cc1 [compound 26, 4-((1R,5S)-3-((1H-indol-6-yl)sulfonyl)-3,8-diazabicyclo[3.2.1]octan-8-yl)phenol] | 6.30 to 7.00 | 5.00 to 5.30
2 | O=S(=O)(c1ccc2cc[nH]c2c1)N1CCN(c2ccc(O)cc2)CC1 [compound 2, 4-(4-((1H-indol-6-yl)sulfonyl)piperazin-1-yl)phenol] | 7.00 to 7.30 | 5.30 to 6.00

— US20240285614A1, “PHENOL RIBONUCLEOTIDE REDUCTASE (RNR) INHIBITORS AND USES THEREOF” (Boundless Bio, Inc., priority 2023, published 2024)
